From patent US20240116985A1, “STAPLED PEPTIDES AND METHODS THEREOF” (priority 2020, published 2024)
pIC50: −log10 of the molar value. Where two headings read alike, the source gives them in different places.

Tests used:
[1] = biological target: T1, full-length beta-Catenin (Uniprot ID P35222) (Homo sapiens, UniProt P35222); experiment: Fluorescence polarization IC50 (beta-catenin / 5FAM-TCF4 10-53 competition); format: binding
T1 construct: 10 nM full-length beta-Catenin (Uniprot ID P35222)
T1 sequence (P35222 1-781): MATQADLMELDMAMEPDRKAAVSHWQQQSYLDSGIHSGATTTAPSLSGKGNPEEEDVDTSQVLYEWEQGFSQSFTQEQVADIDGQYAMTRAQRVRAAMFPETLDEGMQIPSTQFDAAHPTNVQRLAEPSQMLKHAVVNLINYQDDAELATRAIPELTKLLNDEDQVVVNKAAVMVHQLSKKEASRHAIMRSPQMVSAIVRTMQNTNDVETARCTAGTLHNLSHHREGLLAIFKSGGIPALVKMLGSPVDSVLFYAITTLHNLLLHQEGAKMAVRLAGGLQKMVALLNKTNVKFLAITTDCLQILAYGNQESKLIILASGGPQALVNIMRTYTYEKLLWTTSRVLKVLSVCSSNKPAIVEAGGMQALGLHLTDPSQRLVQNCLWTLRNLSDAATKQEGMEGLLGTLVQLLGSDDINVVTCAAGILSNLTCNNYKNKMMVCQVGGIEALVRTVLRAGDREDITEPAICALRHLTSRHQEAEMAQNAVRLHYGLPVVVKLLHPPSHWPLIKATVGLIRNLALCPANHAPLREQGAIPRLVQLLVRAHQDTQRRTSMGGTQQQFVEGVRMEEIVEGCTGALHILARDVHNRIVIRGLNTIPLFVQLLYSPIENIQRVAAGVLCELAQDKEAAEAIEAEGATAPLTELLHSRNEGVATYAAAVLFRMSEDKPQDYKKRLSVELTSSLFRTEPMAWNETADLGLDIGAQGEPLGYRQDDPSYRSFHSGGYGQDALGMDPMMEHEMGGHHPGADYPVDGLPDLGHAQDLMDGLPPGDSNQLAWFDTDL

CHI Log D procedure = format: physicochemical; settings: for CHI Log D: pH 7.4; for chromatographic logD: pH 7.4, CHI Log D
[2] = fluorescence polarization, read-out: beta-Catenin FP IC50
[3] = Table E2-1, read-out: beta-Catenin FP IC50
[4] = fluorescence polarization, beta-catenin, read-out: FP EC50

SMILES | pIC50 [1, 2] | pIC50 ([1]; read-out: FP EC50) | CHI Log D (CHI Log D procedure) | pIC50 [1, 3] | chromatographic logD (CHI Log D procedure) | pIC50 [1, 4] | pIC50 ([1]; read-out: beta-Catenin FP IC50)
CC(=O)N[C@@H](Cc1ccccc1)C(=O)N[C@@H](CC(=O)O)C(=O)N[C@@H](C)C(=O)N[C@]1(C)CCCCCCC=CCOC(=O)N2CC[C@@](C(=O)N[C@@H](Cc3ccccc3)C(=O)N[C@@H](Cc3c[nH]c4ccccc34)C(=O)N[C@@H](CCC(N)=O)C(N)=O)(C2)NC(=O)[C@H](C(C)C)NC(=O)[C@H](Cc2ccc(F)cc2)NC(=O)[C@H](C)NC(=O)[C@H](C)NC(=O)[C@H](CC(=O)O)NC(=O)[C@H](CC(=O)O)NC1=O [I-78, Ac-Phe-Asp-Ala-R8-Asp-Asp-Ala-Ala-4FF-Val-PyrS-Phe-Trp-Gln-NH2] | – | – | – | 5.30 | 1.24 | – | –
CC(=O)N1CCC[C@]12CC=CCCCC1(CCCC=CCCCCCC[C@@](C)(C(=O)N[C@@H](Cc3ccccc3C)C(=O)N[C@@H](Cc3csc4ccccc34)C(=O)N[C@@H](CCC(N)=O)C(N)=O)NC(=O)[C@H](C)NC(=O)[C@H](Cc3ccccc3)NC(=O)[C@H](C)NC(=O)[C@H](C)NC(=O)[C@H](CC(=O)O)NC(=O)[C@H](CC(=O)O)NC1=O)NC(=O)[C@H](C)NC(=O)[C@H](CC(=O)O)NC2=O (stereo partly drawn) [I-367, Ac-PL3-Asp-Ala-B5-Asp-Asp-Ala-Ala-Phe-Ala-S8-2MeF-BztA-Gln-NH2] | – | – | – | 6.75 | 2.15 | – | –
CC(=O)N1CCC[C@]12CC=CCCCC1(CCCC=CCCCCCC[C@@](C)(C(=O)N[C@@H](Cc3ccccc3)C(=O)N[C@@H](Cc3c[nH]c4ccccc34)C(=O)N[C@@H](CCC(N)=O)C(N)=O)NC(=O)[C@H](C(C)C)NC(=O)[C@H](Cc3ccccc3)NC(=O)[C@H](C)NC(=O)[C@H](C)NC(=O)[C@H](CC(N)=O)NC(=O)[C@H](CC(=O)O)NC1=O)NC(=O)[C@H](C)NC(=O)[C@H](CC(=O)O)NC2=O (stereo partly drawn) [I-125, Ac-PL3-Asp-Ala-B5-Asp-Asn-Ala-Ala-Phe-Val-S8-Phe-Trp-Gln-NH2] | – | – | 2.256 | 5.51 | – | 5.51 | –
CC(=O)N1CCC[C@]12CC=CCCCC1(CCCC=CCCCCCC[C@@](C)(C(=O)N[C@@H](Cc3ccccc3)C(=O)N[C@@H](Cc3c[nH]c4ccccc34)C(=O)N[C@@H](C)C(N)=O)NC(=O)[C@H](C)NC(=O)[C@H](Cc3ccccc3)NC(=O)[C@H](C)NC(=O)[C@H](C)NC(=O)[C@H](CC(=O)O)NC(=O)[C@H](CC(=O)O)NC1=O)NC(=O)[C@H](C)NC(=O)[C@H](CC(=O)O)NC2=O (stereo partly drawn) [I-286, Ac-PL3-Asp-Ala-B5-Asp-Asp-Ala-Ala-Phe-Ala-S8-Phe-Trp-Ala-NH2] | – | – | – | 5.35 | 2.01 | – | –
CC[C@H](C)[C@@H]1NC(=O)[C@H](CC(=O)O)NC(=O)[C@]2(CC=CCCCC3(CCCC=CCCCCCC[C@@](C)(C(=O)N[C@@H](Cc4ccccc4)C(=O)N[C@@H](Cc4csc5ccccc45)C(=O)N[C@@H](CCC(N)=O)C(=O)N[C@@H](CCCCNC(=O)CN=[N+]=[N-])C(N)=O)NC(=O)[C@H](CCC(N)=O)NC(=O)[C@H](Cc4ccccc4)NC(=O)[C@H](C)NC(=O)[C@H](C)NC(=O)[C@H](CCC(=O)O)NC(=O)[C@H](CC(=O)O)NC3=O)NC1=O)CCCN2C(C)=O (stereo partly drawn) [I-596, Ac-PL3-Asp-Ile-B5-Asp-Glu-Ala-Ala-Phe-Gln-S8-Phe-BztA-Gln-[AzAc]Lys-NH2] | – | 6.95 | 2.373 | – | – | – | –
CC(=O)N1CCC[C@]12CC=CCCCC1(CCCC=CCCCCCC[C@@](C)(C(=O)N[C@@H](Cc3ccccc3)C(=O)N[C@@H](Cc3c[nH]c4ccccc34)C(=O)N[C@@H](CCC(N)=O)C(N)=O)NC(=O)[C@H](C(C)C)NC(=O)[C@H](Cc3ccccc3)NC(=O)[C@H](C)NC(=O)[C@H](C)NC(=O)[C@H](Cc3ccccn3)NC(=O)[C@H](CC(=O)O)NC1=O)NC(=O)[C@H](C)NC(=O)[C@H](CC(=O)O)NC2=O (stereo partly drawn) [I-270, Ac-PL3-Asp-Ala-B5-Asp-2PyrA-Ala-Ala-Phe-Val-S8-Phe-Trp-Gln-NH2] | – | – | – | 5.30 | 2.5 | – | –

Continued, values first:

pIC50 [1, 2] | pIC50 ([1]; read-out: FP EC50) | CHI Log D (CHI Log D procedure) | pIC50 [1, 3] | chromatographic logD (CHI Log D procedure) | pIC50 [1, 4] | pIC50 ([1]; read-out: beta-Catenin FP IC50) | SMILES
7.81 | 7.81 | 2.334 | – | – | – | – | CC[C@H](C)[C@@H]1NC(=O)[C@H](CC(=O)O)NC(=O)[C@]2(CC=CCCCC3(CCCC=CCCCCCC[C@@](C)(C(=O)N[C@@H](Cc4ccsc4)C(=O)N[C@@H](Cc4csc5ccccc45)C(=O)N[C@@H](CCC(N)=O)C(N)=O)NC(=O)[C@H](CC(N)=O)NC(=O)[C@H](Cc4ccccc4)NC(=O)[C@H](C)NC(=O)[C@H](C)NC(=O)[C@H](CC(=O)O)NC(=O)[C@H](CC(=O)O)NC3=O)NC1=O)CCCN2C(C)=O (stereo partly drawn) [I-552, Ac-PL3-Asp-Ile-B5-Asp-Asp-Ala-Ala-Phe-Asn-S8-3Thi-BztA-Gln-NH2]
5.34 | – | – | – | 2.13 | – | – | CC[C@H](C)[C@@H]1NC(=O)[C@H](CC(=O)O)NC(=O)[C@]2(CC=CCCCC3(CCCC=CCCCCCC[C@@](C)(C(=O)N[C@@H](Cc4ccccc4)C(=O)N[C@@H](Cc4csc5ccccc45)C(=O)N[C@@H](CCC(N)=O)C(N)=O)NC(=O)[C@H](CCC(N)=O)NC(=O)[C@H](Cc4ccccc4)NC(=O)[C@H](C)NC(=O)[C@H](C)NC(=O)[C@H](CCC(=O)O)NC(=O)C[C@H](CC(=O)O)NC3=O)NC1=O)CCCN2C(C)=O (stereo partly drawn) [I-675, Ac-PL3-Asp-Ile-B5-RbGlu-Glu-Ala-Ala-Phe-Gln-S8-Phe-BztA-Gln-NH2]
5.50 | 5.50 | 2.25 | – | – | – | – | CC[C@H](C)[C@@H]1NC(=O)C[C@H](CC(=O)O)NC(=O)[C@]2(CC=CCCCC3(CCCC=CCCCCCC[C@@](C)(C(=O)N[C@@H](Cc4ccccc4)C(=O)N[C@@H](Cc4csc5ccccc45)C(=O)N[C@@H](CCC(N)=O)C(N)=O)NC(=O)[C@H](CCC(N)=O)NC(=O)[C@H](Cc4ccccc4)NC(=O)[C@H](C)NC(=O)[C@H](C)NC(=O)[C@H](CCC(=O)O)NC(=O)[C@H](CC(=O)O)NC3=O)NC1=O)CCCN2C(C)=O (stereo partly drawn) [I-671, Ac-PL3-RbGlu-Ile-B5-Asp-Glu-Ala-Ala-Phe-Gln-S8-Phe-BztA-Gln-NH2]
– | – | 2.046 | – | – | 6.39 | 6.39 | CC(=O)N1CCC[C@]12CC=CCCCC1(CCCC=CCCCOC(=O)N3CC[C@@](C(=O)N[C@@H](Cc4ccsc4)C(=O)N[C@@H](Cc4csc5ccccc45)C(=O)N[C@@H](CO)C(N)=O)(C3)NC(=O)[C@H](Cc3ccccc3)NC(=O)[C@H](Cc3ccccc3)NC(=O)[C@H](C)NC(=O)[C@H](C)NC(=O)[C@H](CN(CC(=O)O)CC(F)(F)F)NC(=O)[C@H](CC(=O)O)NC1=O)NC(=O)[C@H](CC(C)(C)C)NC(=O)[C@H](CC(=O)O)NC2=O (stereo partly drawn) [I-962, Ac-PL3-Asp-Npg-B5-Asp-TfeGA-Ala-Ala-Phe-Phe-PyrS2-3Thi-BztA-Ser-NH2]
7.25 | 7.25 | 2.308 | – | – | – | – | CC(=O)N1CCC[C@]12CC=CCCCC1(CCCC=CCCCCCC[C@@](C)(C(=O)N[C@@H](Cc3ccccc3)C(=O)N[C@@H](Cc3csc4ccccc34)C(=O)N[C@@H](CCC(N)=O)C(N)=O)NC(=O)[C@H](CCC(N)=O)NC(=O)[C@H](Cc3ccccc3)NC(=O)[C@H](C)NC(=O)[C@H](C)NC(=O)[C@H](CC(=O)O)NC(=O)[C@H](CC(=O)O)NC1=O)NC(=O)[C@H](CC(C)C)NC(=O)[C@H](CC(=O)O)NC2=O (stereo partly drawn) [I-558, Ac-PL3-Asp-Leu-B5-Asp-Asp-Ala-Ala-Phe-Gln-S8-Phe-BztA-Gln-NH2]
7.20 | 7.20 | 2.395 | – | – | – | – | CC[C@H](C)[C@@H]1NC(=O)[C@H](CC(=O)O)NC(=O)[C@]2(CC=CCCCC3(CCCC=CCCCCCC[C@@](C)(C(=O)N[C@@H](Cc4ccccc4OC)C(=O)N[C@@H](Cc4csc5ccccc45)C(=O)N[C@@H](CCC(N)=O)C(N)=O)NC(=O)[C@H](CCC(N)=O)NC(=O)[C@H](Cc4ccccc4)NC(=O)[C@H](C)NC(=O)[C@H](C)NC(=O)[C@H](CCC(=O)O)NC(=O)[C@H](CC(=O)O)NC3=O)NC1=O)CCCN2C(C)=O (stereo partly drawn) [I-528, Ac-PL3-Asp-Ile-B5-Asp-Glu-Ala-Ala-Phe-Gln-S8-2OMeF-BztA-Gln-NH2]
– | – | – | – | 2.16 | – | 8.05 | C#CCOCCOCCOCCOCCC(=O)NCCCC[C@H](NC(=O)[C@H](CCC(N)=O)NC(=O)[C@H](Cc1csc2ccccc12)NC(=O)[C@H](Cc1ccsc1)NC(=O)[C@]12CCN(C1)C(=O)OCCCC=CCCCC1(CCCC=CC[C@]3(CCCN3C(C)=O)C(=O)N[C@@H](CC(=O)O)C(=O)N[C@@H](CC(C)(C)C)C(=O)N1)C(=O)N[C@@H](CC(=O)O)C(=O)N[C@@H](CC(=O)O)C(=O)N[C@@H](C)C(=O)N[C@@H](C)C(=O)N[C@@H](Cc1ccccc1)C(=O)N[C@@H](CC(N)=O)C(=O)N2)C(N)=O (stereo partly drawn) [I-938, Ac-PL3-Asp-Npg-B5-Asp-Asp-Ala-Ala-Phe-Asn-PyrS2-3Thi-BztA-Gln-[PropynPEG4]Lys-NH2]
